According to patent US8741899B2, “(4-chloro-2-fluoro-N-(2-fluorophenyl)-5-[(8aR)-hexahydropyrrolo-[1,2-a]pyrazin-2(1H)-ylcarbonyl]-benzenesulfonamide, and pharmaceutically acceptable salts thereof” (AbbVie Inc., priority 2009, dated 2014):

molecular target: T1, Human Cav3.2 Channels (Homo sapiens, UniProt O95180); assay: Electrophysiologic (whole-cell patch-clamp) assessment of calcium channel activity in HEK293 cells stably expressing hCav3.2; assay type: cell-based; settings: −77 mV, geometric mean, read-out: Human Cav3.2 −77 mV IC50 (μM) GeoMean
T1 construct: expressed in transfected cells
T1 sequence (O95180 whole entry): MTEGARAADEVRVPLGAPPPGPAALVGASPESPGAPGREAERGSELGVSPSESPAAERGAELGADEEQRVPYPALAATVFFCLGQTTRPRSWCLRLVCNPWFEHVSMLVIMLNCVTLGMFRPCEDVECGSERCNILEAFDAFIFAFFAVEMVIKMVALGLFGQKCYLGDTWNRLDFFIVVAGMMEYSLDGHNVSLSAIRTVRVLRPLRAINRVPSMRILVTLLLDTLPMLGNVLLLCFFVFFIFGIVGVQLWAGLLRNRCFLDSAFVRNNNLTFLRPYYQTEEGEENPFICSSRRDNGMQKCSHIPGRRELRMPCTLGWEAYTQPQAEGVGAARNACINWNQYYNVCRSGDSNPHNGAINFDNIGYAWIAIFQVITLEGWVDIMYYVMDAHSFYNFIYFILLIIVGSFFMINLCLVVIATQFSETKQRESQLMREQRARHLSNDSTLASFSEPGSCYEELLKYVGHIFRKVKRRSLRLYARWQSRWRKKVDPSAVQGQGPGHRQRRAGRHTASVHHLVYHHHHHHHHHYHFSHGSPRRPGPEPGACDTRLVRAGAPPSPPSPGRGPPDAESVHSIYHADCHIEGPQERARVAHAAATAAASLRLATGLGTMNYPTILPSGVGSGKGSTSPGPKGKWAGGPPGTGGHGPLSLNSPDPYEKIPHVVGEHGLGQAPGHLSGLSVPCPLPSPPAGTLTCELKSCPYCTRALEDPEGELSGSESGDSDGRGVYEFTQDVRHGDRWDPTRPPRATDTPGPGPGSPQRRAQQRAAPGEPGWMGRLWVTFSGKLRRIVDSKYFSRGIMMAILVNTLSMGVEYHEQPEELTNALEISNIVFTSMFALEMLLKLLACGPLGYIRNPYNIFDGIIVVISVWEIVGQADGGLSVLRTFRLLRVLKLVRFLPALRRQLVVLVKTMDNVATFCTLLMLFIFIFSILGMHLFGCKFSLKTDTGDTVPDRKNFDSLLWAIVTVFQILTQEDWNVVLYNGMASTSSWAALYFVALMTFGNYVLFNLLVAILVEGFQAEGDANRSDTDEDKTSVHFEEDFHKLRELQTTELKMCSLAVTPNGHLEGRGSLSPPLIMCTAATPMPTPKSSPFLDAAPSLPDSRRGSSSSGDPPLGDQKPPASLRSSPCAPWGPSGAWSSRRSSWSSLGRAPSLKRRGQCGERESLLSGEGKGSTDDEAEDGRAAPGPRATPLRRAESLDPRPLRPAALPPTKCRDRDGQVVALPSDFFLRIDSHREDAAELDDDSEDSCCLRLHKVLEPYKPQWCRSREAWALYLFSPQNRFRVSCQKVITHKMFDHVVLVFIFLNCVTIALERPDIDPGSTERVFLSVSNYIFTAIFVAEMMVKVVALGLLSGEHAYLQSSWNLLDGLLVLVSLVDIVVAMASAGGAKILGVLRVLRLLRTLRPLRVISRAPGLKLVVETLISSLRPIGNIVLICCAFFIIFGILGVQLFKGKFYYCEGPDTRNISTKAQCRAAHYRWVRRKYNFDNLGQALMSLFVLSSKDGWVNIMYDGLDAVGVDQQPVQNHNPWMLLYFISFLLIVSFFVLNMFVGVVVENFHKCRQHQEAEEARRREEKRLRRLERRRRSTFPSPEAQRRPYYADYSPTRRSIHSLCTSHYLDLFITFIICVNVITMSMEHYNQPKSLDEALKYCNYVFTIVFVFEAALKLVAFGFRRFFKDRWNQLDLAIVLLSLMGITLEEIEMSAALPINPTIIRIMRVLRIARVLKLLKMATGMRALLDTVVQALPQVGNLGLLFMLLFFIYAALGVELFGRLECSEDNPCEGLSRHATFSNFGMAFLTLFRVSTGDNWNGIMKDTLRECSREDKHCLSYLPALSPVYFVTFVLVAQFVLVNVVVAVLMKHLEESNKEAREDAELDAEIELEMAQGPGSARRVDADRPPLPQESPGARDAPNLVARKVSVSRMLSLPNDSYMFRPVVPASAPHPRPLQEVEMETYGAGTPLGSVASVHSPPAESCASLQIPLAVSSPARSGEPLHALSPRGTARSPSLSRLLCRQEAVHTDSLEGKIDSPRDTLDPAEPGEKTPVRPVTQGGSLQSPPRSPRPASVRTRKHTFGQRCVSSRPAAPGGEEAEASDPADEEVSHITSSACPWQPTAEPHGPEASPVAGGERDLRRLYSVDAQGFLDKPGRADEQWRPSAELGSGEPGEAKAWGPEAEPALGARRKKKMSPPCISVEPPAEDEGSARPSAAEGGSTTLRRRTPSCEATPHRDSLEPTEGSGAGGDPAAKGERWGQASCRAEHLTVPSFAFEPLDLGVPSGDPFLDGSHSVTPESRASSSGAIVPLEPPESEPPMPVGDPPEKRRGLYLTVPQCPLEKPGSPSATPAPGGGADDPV
Procedure: (i) In Vitro Methods—Electrophysiologic Assessment of Calcium Channel Activity:
Patch-clamp recordings were performed using HEK293 cells stably expressing hCav3.2. Cells were plated in T175 flasks and grown at 37° C. and under 5% CO2 to approximately 50% confluency. On the day of the experiment, cells were harvested with Detachin™ cell detachment solution (Genlantis, San Diego, Calif.) and maintained in serum-free culture medium supplemented with 25 mM HEPES up to several hours prior to experiment. Whole-cell patch-clamp recordings were obtained using extracellular saline consisting of (mM): 87.5 CsCl, 40 TEA-Cl, 5 CaCl2, 1 MgCl2, 10 HEPES, 10 glucose. The pH was adjusted to 7.2 with CsOH and the osmolarity was adjusted to approximately 310 mOsm with sucrose. Intracellular solution consisted of (mM): 112 CsCl, 27 CsF, 2 NaCl, 8.2 EGTA, 10 HEPES. Prior to an experiment 4 mM Mg2ATP was added and the pH was adjusted to 7.2 with CsOH with an osmolarity of approximately 290 mOsm. A two-pulse voltage protocol was utilized to assess compound inhibition. First, cells were held with an 8 s pre-pulse at −100 mV prior to a 160 ms test pulse to −30 mV. This was followed by an 8 s pre-pulse at approximately −75 mV prior to a […]. Increasing concentrations of antagonist were applied to individual cells in a multi-addition format with 5 minutes in each test concentration. For each cell, responses were normalized to dimethyl sulfoxide vehicle control to generate concentration-response curves.

Compound | IC50 [µM]
O=C(NC(c1ccccc1)c1ccccc1)c1cc(S(=O)(=O)N2CCN3CCC[C@H]3C2)c(F)cc1Cl [Example 82, N-benzhydryl-2-chloro-4-fluoro-5-[(8aS)-hexahydropyrrolo[1,2-a]pyrazin-2(1H)-ylsulfonyl]benzamide] | 2.6
CN(c1ccccc1F)S(=O)(=O)c1cc(C(=O)N2CCN3CCC[C@@H]3C2)c(Cl)cc1F [Example 66, 4-chloro-2-fluoro-N-(2-fluorophenyl)-5-[(8aR)-hexahydropyrrolo[1,2-a]pyrazin-2(1H)-ylcarbonyl]-N-methylbenzenesulfonamide] | 5.9
O=C(c1cccc(S(=O)(=O)Nc2cccc(F)c2F)c1)N1CCN2CCC[C@@H]2C1 [Example 14, N-(2,3-difluorophenyl)-3-[(8aR)-hexahydropyrrolo[1,2-a]pyrazin-2(1H)-ylcarbonyl]benzenesulfonamide] | 3.7
O=C(c1cc(S(=O)(=O)Nc2ccccc2F)c(F)cc1Cl)N1CCN2CCC[C@H]2C1 [Example 58, 4-chloro-2-fluoro-N-(2-fluorophenyl)-5-[(8aS)-hexahydropyrrolo[1,2-a]pyrazin-2(1H)-ylcarbonyl]benzenesulfonamide] | 4.6
Cc1cc(C(=O)N2CCN3CCC[C@@H]3C2)ccc1NC(=O)c1ccc2ccccc2c1 [Example 72, N-{4-[(8aR)-hexahydropyrrolo[1,2-a]pyrazin-2(1H)-ylcarbonyl]-2-methylphenyl}-2-naphthamide] | > 10
O=C(c1cccc(S(=O)(=O)Nc2ccccc2F)c1)N1CCN2CCC[C@H]2C1 [Example 17, N-(2-fluorophenyl)-3-[(8aS)-hexahydropyrrolo[1,2-a]pyrazin-2(1H)-ylcarbonyl]benzenesulfonamide] | > 10
O=C(c1ccc(S(=O)(=O)N[C@H](CO)c2ccccc2)cc1)N1CCN2CCC[C@@H]2C1 [Example 62, 4-[(8aR)-hexahydropyrrolo[1,2-a]pyrazin-2(1H)-ylcarbonyl]-N-[(1S)-2-hydroxy-1-phenylethyl]benzenesulfonamide] | > 10
O=C(c1cccc(S(=O)(=O)Nc2ccccc2-c2ccccc2)c1)N1CCN2CCC[C@H]2C1 [Example 36, N-1,1′-biphenyl-2-yl-3-[(8aS)-hexahydropyrrolo[1,2-a]pyrazin-2(1H)-ylcarbonyl]benzenesulfonamide] | 4.7
O=C(c1ccc(Cl)c(NC(c2ccccc2)c2ccccc2)c1)N1CCN2CCC[C@@H]2C1 [Example 79, N-benzhydryl-N-{2-chloro-5-[(8aR)-hexahydropyrrolo[1,2-a]pyrazin-2(1H)-ylcarbonyl]phenyl}amine] | 8.5
O=C(c1cc(S(=O)(=O)N2CCc3ccccc32)c(F)cc1Cl)N1CCN2CCC[C@@H]2C1 [Example 63, (8aR)-2-[2-chloro-5-(2,3-dihydro-1H-indol-1-ylsulfonyl)-4-fluorobenzoyl]octahydropyrrolo[1,2-a]pyrazine] | > 10

These reach a lower IC50. Values come first.

IC50 [µM] | Compound
2 | O=C(c1cc(S(=O)(=O)NC(c2ccccc2)c2ccccc2)c(F)cc1Cl)N1CCN2CCC[C@@H]2C1 [Example 74, N-benzhydryl-4-chloro-2-fluoro-5-[(8aR)-hexahydropyrrolo[1,2-a]pyrazin-2(1H)-ylcarbonyl]benzenesulfonamide]
1.9 | O=C(c1cccc(S(=O)(=O)N2CCN(C(c3ccccc3)c3ccccc3)CC2)c1)N1CCN2CCC[C@H]2C1 [Example 28, (8aS)-2-{3-[(4-benzhydrylpiperazin-1-yl)sulfonyl]benzoyl}octahydropyrrolo[1,2-a]pyrazine]
0.6 | O=C(c1cccc(S(=O)(=O)N2CCN3CCC[C@@H]3C2)c1)N1CCN(C(c2ccc(F)cc2)c2ccc(F)cc2)CC1 [Example 50, (8aR)-2-{[3-({4-[bis(4-fluorophenyl)methyl]piperazin-1-yl}carbonyl)phenyl]sulfonyl}octahydropyrrolo[1,2-a]pyrazine]
2 | O=C(c1cccc(NC(c2ccccc2)c2ccccc2)c1)N1CCN2CCC[C@@H]2C1 [Example 80, N-benzhydryl-N-{3-[(8aR)-hexahydropyrrolo[1,2-a]pyrazin-2(1H)-ylcarbonyl]phenyl}amine]
